The values below come from PMC5749684, “Tetrahydrocarbazoles are a novel class of potent P-type ATPase inhibitors with antifungal activity” (PLoS ONE, 2018).

Converted amounts (≈) assume the structure as drawn.

Test [1] addresses T1, Mammalian Na^+,K^+-ATPase (Sus scrofa, UniProt P05024).
T1 construct: The pig kidney Na^+,K^+-ATPase purification included a mild SDS treatment of isolated microsomes; from tissue; host or cells: pig kidney microsomes, SDS-treated
As to the kind of experiment: ATP hydrolysis inhibition, Na+,K+-ATPase. In kind it is biochemical. Particulars: pig Na+,K+-ATPase, racemic compounds, n = 3. An excerpt:
All membrane batches were validated by determining ATPase activity, pH optimum and orthovanadate sensitivity. Sarco/endoplasmatic reticulum (SR) Ca^2+ ATPase was provided in SR membranes purified by extraction with a low concentration of deoxycholate (DOC) and was kindly provided by Claus E. Olesen and Jesper V. Møller, Aarhus University and prepared as described in [43]. The pig kidney Na^+,K^+-ATPase purification included a mild SDS treatment of isolated microsomes followed by a washing step and was kindly provided by Natalya Fedosova, Aarhus University and prepared as described in [44].
(§1) ATPase activity was determined by measuring the amount of liberated phosphate from ATP hydrolysis. The ATPase assay was performed in 96 well plates in a final reaction volume of 60 μL. 0.1–0.2 μg/well of DOC extracted SERCA membrane or the Na^+,K^+-ATPase was used, while 1–2.5 μg/well was used of the Pma1 membrane preparation. Reactions, including protein membrane preparation and various concentrations of exogenously added compounds, were conducted in the following buffers; Pma1 buffer: 17.5 mM MOPS-NaOH pH 7, 7 mM MgSO4, 44 mM KNO3 (vacuolar ATPase inhibitor), 22 mM NaN3 (mitochondrial ATPase inhibitor), 0.22 mM Na2MoO4 (acid phosphatase inhibitor); SERCA buffer: 9 mM MOPS-NaOH pH 7, 2.7 mM MgCl2, 0.1 mM CaCl2 and 72 mM KCl. Na^+,K^+-ATPase buffer: 30 mM MOPS-NaOH pH 7, 40 mM NaCl, 4 mM MgCl2 and 20 mM KCl. Reactions were initiated by the addition of Na-ATP to a final concentration of 2.5 mM (Pma1 and Na^+,K^+-ATPase) or 5 mM (SERCA), followed by 30 minutes incubation at 30°C. […] Absorption was measured at 860 nm after additional 30 minutes incubation at RT.

In test [2] the test system is Candida krusei ATCC 6258. In words: Fungal growth inhibition, C. krusei. Particulars: Pichia kudriavzevii, ATCC6258; MIC defined as 50% growth inhibition, 24 h, n = 3–6. The format is cell-based. An excerpt: (§2) Fungal isolates were purchased from American Type Culture Collection, except for C. glabrata strain Cg003, which was kindly provided by Julius Subik, Comenius University in Bratislava, Slovak Republic. Cg003 is a clinical isolate, characterized to be resistant to fluconazole and itraconazole due to overexpression of the multidrug resistance efflux pumps Cdr1p and Cdr2p. Saccharomyces cerevisiae (ATCC 9763), Candida albicans (ATCC 90028), Candida albicans (SC5314), Candida glabrata (ATCC 90030), Candida glabrata (Cg003) and Candida krusei (ATCC 6258) were grown in Sabouraud broth (40 g/L D-glucose, 10 g/L peptone, pH 5.6) or YPD (10 g/L yeast extract, 20 g/L Bacto-peptone, 20 g/L glucose) medium to mid log phase, aliquoted into 20% (v/v) glycerol and cryopreserved as stocks at -80°C. For each growth assay, cells from these stocks were diluted in sterile water to OD600 = 0.025, which corresponds to a final starting inoculum of 0.5–2.5 x 10^5 CFU/mL. Growth assays were carried out by pipetting 3 μL compound dissolved in DMSO, 100 μL cell suspension and 97 μL 2 x RPMI media (20.8 g/L RPMI-1640 (Sigma-Aldrich catalog number R6504) 330 mM MOPS, 36 g/L glucose) into a microtiter plate and incubating for 24 h at 34°C, followed by OD measurement at 490 nm. The minimum inhibitory concentration (MIC) was defined as 50% growth inhibition of the microorganism as this measurement best represented the antifungal activity of the compounds. Standard errors were typically below 5%.

Test [3] relates to Candida glabrata Cg003. As to the kind of experiment: microbe, parasite or virus in culture. In kind it is cell-based. Particulars: for MIC: Nakaseomyces glabratus, CG003, 24 h, read-out: Growth inhibition MIC Candida glabrata Cg003. Here is the method: as §2, with “Cg003 is a clinical isolate, characterized to be resistant to fluconazole and itraconazole due to overexpression of the multidrug resistance efflux pumps Cdr1p and Cdr2p.” left out, “nm.” for “nm. The minimum inhibitory concentration (MIC) was defined as 50% growth inhibition of the microorganism as this measurement best represented the antifungal activity of the compounds. Standard errors were typically below 5%.”

For test [4], the system named is Candida albicans SC5314. In words: Fungal growth inhibition, C. albicans SC5314. The format is cell-based. Particulars: MIC defined as 50% growth inhibition, 24 h, n = 3–6.
Description: as §2

The target in test [5] is T2, Candida albicans Pma1 (Candida albicans, UniProt P28877).
T2 construct: endogenous in cells
In words: ATP hydrolysis inhibition, C. albicans Pma1. The format is biochemical. Particulars: racemic compounds, n = 3. Here is the method:
Candida albicans microsomes were prepared from 100 mL overnight culture in YPD (10 g/L yeast extract (BD, Sparks, MD), 20 g/L Bacto peptone (BD, Sparks, MD), 20 g/L D-(+)-glucose), transferred to 1 L YPD and grown at RT, 150 rpm, for 7 h. Cells were harvested and washed in deionized water followed by centrifugation at 3360 x g. The cells were glucose-activated by the addition of 10% (w/v) D-(+)-glucose for 10 minutes while shaking. This suspension was then centrifuged at 3,360 x g for 3 minutes and 60–80 g of cells (wet weight) were resuspended in homogenization buffer (50 g/L glucose, 28.3% (v/v) glycerol, 100 mM Tris-HCl pH 7.25, 10 mM EDTA pH 8.0, 50 mM KCl, 1 mM DTT, 200 μM PMSF, 2 μg/ml Pepstatin A), and disrupted with 165 g glassbeads (500 μm diameter) in a BeadBeater (Biospec Product, Bartlesville, OK). The disrupted cells were centrifuged at 4°C for 5 and 15 minutes at 1,400 x g and 12,000 x g, respectively. The supernatant was collected and centrifuged at 251,000 x g for 1 h, and the membrane fraction was collected and homogenized in GTEK20 buffer (20% (v/v) glycerol, 10 mM Tris-HCl pH 7.25, 25 mM KCl, 0.5 mM EDTA pH 8.0, 1 mM DTT, 0.2 mM PMSF, 2 μg/mL Pepstatin A).
as §1

T2 sequence (P28877 whole entry): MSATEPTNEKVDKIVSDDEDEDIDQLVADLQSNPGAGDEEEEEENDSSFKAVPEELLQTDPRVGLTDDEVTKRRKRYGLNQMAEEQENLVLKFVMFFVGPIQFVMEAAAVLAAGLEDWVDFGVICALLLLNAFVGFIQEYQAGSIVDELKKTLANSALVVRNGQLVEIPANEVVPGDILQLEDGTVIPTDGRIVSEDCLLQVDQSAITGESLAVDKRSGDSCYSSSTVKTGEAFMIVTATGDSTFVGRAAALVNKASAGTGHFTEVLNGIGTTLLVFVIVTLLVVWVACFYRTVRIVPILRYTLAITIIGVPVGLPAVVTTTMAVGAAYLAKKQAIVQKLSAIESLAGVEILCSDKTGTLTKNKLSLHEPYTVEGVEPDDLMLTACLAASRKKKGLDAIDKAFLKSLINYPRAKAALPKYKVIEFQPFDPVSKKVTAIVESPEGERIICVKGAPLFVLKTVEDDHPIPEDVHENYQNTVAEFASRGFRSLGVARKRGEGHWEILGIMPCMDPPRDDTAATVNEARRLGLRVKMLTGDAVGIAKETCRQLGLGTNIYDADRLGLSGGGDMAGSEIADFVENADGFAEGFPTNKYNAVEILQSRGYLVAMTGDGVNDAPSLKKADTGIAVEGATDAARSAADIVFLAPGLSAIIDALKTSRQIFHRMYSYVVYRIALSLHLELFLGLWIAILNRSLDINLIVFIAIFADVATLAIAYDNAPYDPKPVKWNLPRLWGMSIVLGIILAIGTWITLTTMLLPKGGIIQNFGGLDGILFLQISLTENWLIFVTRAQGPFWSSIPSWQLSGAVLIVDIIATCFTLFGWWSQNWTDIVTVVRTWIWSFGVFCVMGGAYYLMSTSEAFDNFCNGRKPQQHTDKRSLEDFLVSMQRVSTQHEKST

Turning to `NC1CCCc2c1[nH]c1cc(OC(F)(F)F)ccc21` (stereo not shown) [Compound 4], the half-maximal inhibitory concentration (IC50) came to 37.2 ± 13.6 µM in test [1] and 46 ± 14.5 µM in test [5]. Also, the MIC in test [2] was 66 ± 16 µM (≈ 17.8 µg/mL); in test [3] it was 75 µM (≈ 20.3 µg/mL); in test [4], 100 ± 43 µM (≈ 27 µg/mL).
In the same order, the values of `CN1CCC(NC2CCCc3c2[nH]c2cc(OC(F)(F)F)ccc32)CC1` (stereo not shown) [Compound 5] are 132 ± 35.2 µM, 130 ± 32.2 µM, 150 µM (≈ 55.1 µg/mL), > 75 µM and 150 µM (≈ 55.1 µg/mL).
In the case of `FC(F)(F)Oc1ccc2c3c([nH]c2c1)C(NCc1ccc(Cl)cc1)CCC3` (stereo not shown) [Compound 6], the figures for the concentration for half-maximal inhibition (IC50) in test [1] and in test [5] were 0.72 ± 0.3 µM and 3.89 ± 1.71 µM, respectively. Also, the MIC in test [2] is 7.5 µM (≈ 2.96 µg/mL); in test [3], > 75 µM; in test [4], 7.5 µM (≈ 2.96 µg/mL).
Regarding `FC(F)(F)Oc1ccc2c3c([nH]c2c1)C(NCc1ccc(Br)cc1)CCC3` (stereo not shown) [Compound 7], the 50% inhibitory concentration (IC50) in test [1] came out at 0.38 ± 0.12 µM; in test [5], 2.47 ± 0.26 µM. Besides, the MIC in test [2] was 4.7 µM (≈ 2.06 µg/mL); in test [3], > 75 µM; in test [4], 15 µM (≈ 6.59 µg/mL).
For `FC(F)(F)Oc1ccc2c3c([nH]c2c1)C(NCCOc1ccc(Cl)cc1)CCC3` (stereo not shown) [Compound 8], the half-inhibitory concentration (IC50) worked out at 1.07 ± 0.38 µM in test [1] and 3.77 ± 1.04 µM in test [5]. The MIC in test [2] is 12.9 ± 9.4 µM (≈ 5.48 µg/mL); in test [3] it was > 75 µM; in test [4], 7.5 µM (≈ 3.19 µg/mL).
Consider `FC(F)(F)Oc1ccc2[nH]c3c(c2c1)CCCC3NCc1ccc(-c2ccccn2)cc1` (stereo not shown) [Compound 9], for which the concentration for half-maximal inhibition (IC50) in test [1] stood at 9.76 ± 4.47 µM; in test [5] it was 5.56 ± 1.55 µM. For the same compound, the MIC in test [2] amounted to 7.5 ± 4.8 µM (≈ 3.28 µg/mL); in test [3], 23.7 µM (≈ 10.4 µg/mL); in test [4], 7.5 µM (≈ 3.28 µg/mL). In test [3] (strain overexpresses efflux pumps Cdr1p and Cdr2p), the “Antifungal activity against C. glabrata strain Cg003 (in words)” value was “exhibited antifungal activity”.
On to `Clc1ccc2[nH]c3c(c2c1)CCCC3NCc1ccc(-c2ccccc2)cc1` (stereo not shown) [Compound 10], for which the figures for the IC50 in test [1] and in test [5] were 5.5 ± 2.74 µM and 9.7 ± 2.15 µM, respectively. Further, the MIC in test [2] was 6.8 ± 4.6 µM (≈ 2.63 µg/mL); in test [3], > 75 µM; in test [4], 6.8 ± 4.6 µM (≈ 2.63 µg/mL).
For `Cn1c2c(c3cc(Cl)ccc31)CCCC2NCc1ccc(-c2ccccc2)cc1` (stereo not shown) [Compound 11], the IC50 in test [1] and in test [5] was > 20 µM in each case. The MIC in test [2], in test [3] and in test [4] was > 20 µM each time.
Turning to `CN(Cc1ccc(-c2ccccc2)cc1)C1CCCc2c1[nH]c1ccc(Cl)cc21` (stereo not shown) [Compound 12], the results for the IC50 in test [1] and in test [5] were 11.8 ± 6.8 µM and > 20 µM, respectively. Moreover, the MIC in test [2], in test [3] and in test [4] was > 20 µM throughout.
